# Where two headings read alike, the source gives them in different places.
# Tests used:
# [1] = biological target: IRAK4 enzyme (Homo sapiens (Human), UniProt Q9NWZ3); experiment: IRAK4 Biochemical Assay (TR-FRET, STK1 KinEASE); details: second part of Table 2 (compounds 33-343); unit inferred; read-out: IC50 IRAK4-HTBS
# Method: IRAK4 enzyme (Carna Biosciences, Chuo-ku, Kobe, Japan) activity was measured by detecting phosphorylated peptide substrate formation using an antibody against the phosphorylated peptide substrate. This is a time-resolved fluorescence resonance energy transfer (TR-FRET) immunoassay, based on the STK1 KinEASE Assay (Cisbio, Bedford, Mass.). The assay was designed as a simple two-step, endpoint assay (a 5 μl enzyme reaction followed by 5 μl stop and detect Solution) performed in ProxiPlate-384 Plus plates (Perkin Elmer, Waltham, Mass.). […] Compounds diluted in DMSO were spotted into 384 well plates using a Labcyte® Echo 550 Liquid Handling System prior to addition of IRAK4 enzyme and peptide substrate. Reaction solutions were delivered using a Multi-Flo (Bio-Tek Instruments). The enzyme and peptide solution was incubated with compound for 15 minutes at room temp before the reaction was initiated by the addition of ATP. The standard 5 μl reaction mixture contained 500 μM ATP, 2 μM peptide (STK1 Peptide), 0.75 nM of IRAK4 in reaction buffer (50 mM HEPES, pH 7.0, 0.02% NaN3, 0.01% BSA, 0.1 mM Orthovanadate, 5 mM MgCl2, 0.025% NP-40, 1 mM DTT). After 120 min of incubation at room temperature, 5 μl of Stop and Detect Solution (1:100 Cryptate labeled anti-phosphorylated peptide antibody solution and 125 nM Tracer in a 50 mM HEPES pH 7.0 detection buffer containing sufficient EDTA) was added. The plate was then further incubated for 60 minutes at room temperature and read on Envision 2103 Multilabeled reader (PerkinElmer) with excitation/emission/FRET emission at 340 nm/615 nm/665 nm, respectively. Fluorescence intensities at 615 nm and 665 nm emission wavelengths were expressed as a ratio (665 nm/615 nm). Percentage of inhibition was calculated as below: % Inhibition=100×(RatioSample−Ratio0% Inhibition)/(Ratio100% Inhibition−Ratio0% Inhibition)
# The 0% inhibition value comes from control wells lacking inhibitor.
# [2] = system: TNFα; experiment: IRAK4 Monocyte TNFα Cell Based Assay; design: species or system human
# Method: IRAK4 Monocyte TNFα Cell Based Assay Procedure:
# The cell suspension was then plated at a density of 5,000 cells/well onto black 384 well Greiner clear bottom plates. Plates were pre-spotted with test compounds and serially diluted in DMSO where 40 nL/well were delivered using the Echo 550 acoustic liquid dispenser (Labcyte®) for a final DMSO concentration of 0.1%. Plated cells were treated with compound for 1 hour at 37° C. Cells were then stimulated with 50 pg/ml of LPS (Sigma) excluding outside columns of plate used for unstimulated cell control wells. Cells were incubated for an additional 4 hours at 37° C. Cells were then spun out of the media and 5μl of sample were taken and analyzed for total TNFα content using the TR-FRET Human TNFα detection system (CisBio). This system utilizes two labeled antibodies (cryptate and XL665) that bind to two different epitopes of the TNFα molecule and produce FRET signal proportional to the concentration of TNFα in the sample. Detection antibodies are mixed 50:50 and 5 μL were dispensed into each well. Plates were covered with clear seals and incubated at room temp overnight. […] Percent of control was calculated as follows: % Control=100×(RatioSample−Ratio0% Stimulation)/(Ratio100% Stimulation−Ratio0% Stimulation) where unstimulated cells (0% stimulation) were the negative control and stimulated cells (100% stimulation) were used as the positive control.
# [3] = Homo sapiens, Monocyte, human monocytes, LPS-stimulated, compounds 1-32, read-out: EC50 TNF
# [4] = human monocytes, second part of Table 2 (compounds 33-343), unit inferred, read-out: EC50MONO TNF HTRF
# Chain of IRAK4 enzyme (Q9NWZ3 whole entry): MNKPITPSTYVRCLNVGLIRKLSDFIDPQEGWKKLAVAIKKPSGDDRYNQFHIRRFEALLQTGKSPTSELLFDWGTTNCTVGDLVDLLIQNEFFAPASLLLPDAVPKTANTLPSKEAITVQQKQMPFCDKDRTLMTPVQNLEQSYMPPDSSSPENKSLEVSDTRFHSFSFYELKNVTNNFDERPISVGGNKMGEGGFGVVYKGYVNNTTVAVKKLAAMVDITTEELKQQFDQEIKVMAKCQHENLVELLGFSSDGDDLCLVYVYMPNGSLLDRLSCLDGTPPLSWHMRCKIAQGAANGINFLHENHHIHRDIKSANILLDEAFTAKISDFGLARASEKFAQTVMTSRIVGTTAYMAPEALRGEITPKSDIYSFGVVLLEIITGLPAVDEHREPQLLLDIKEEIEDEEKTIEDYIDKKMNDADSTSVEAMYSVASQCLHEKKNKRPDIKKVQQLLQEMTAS
Structure (SMILES),"EC50 [2, 4]",further results
"CC(=O)NC1CCC(F)(c2nnc(-c3cnc(-c4ccc5cc(C#N)cnn45)cc3NC3COC3)s2)CC1 (single isomer, unassigned) [Example 195, N-(4-(5-(6-(3-cyanopyrrolo[1,2-b]pyridazin-7-yl)-4-(oxetan-3-ylamino)pyridin-3-yl)-1,3,4-thiadiazol-2-yl)-4-fluorocyclohexyl)acetamide]",–,IC50 [1]: 1.09 nM
"CC(=O)NC1CCC(F)(c2nnc(-c3cnc(-c4ccc5cc(C#N)cnn45)cc3NC3COC3)s2)CC1 (single isomer, unassigned) [Example 196, N-(4-(5-(6-(3-cyanopyrrolo[1,2-b]pyridazin-7-yl)-4-(oxetan-3-ylamino)pyridin-3-yl)-1,3,4-thiadiazol-2-yl)-4-fluorocyclohexyl)acetamide]",–,IC50 [1]: 1.62 nM
"CC1(O)CCC(c2nnc(-c3cnc(-c4ccc5cc(C#N)cnn45)cc3NC3COC3)s2)CC1 (single isomer, unassigned) [Example 206, 7-(5-(5-(4-hydroxy-4-methylcyclohexyl)-1,3,4-thiadiazol-2-yl)-4-(oxetan-3-ylamino)pyridin-2-yl)pyrrolo[1,2-b]pyridazine-3-carbonitrile]",–,IC50 [1]: 0.56 nM
CC(=O)N[C@H]1CC[C@H](c2nnc(-c3cnc(-c4ccc5cc(C#N)cnn45)cc3N[C@H]3CC[C@H](c4nnc(C(F)F)o4)CC3)s2)CC1 [Example 2],–,"EC50 [2, 3]: 8 nM"
"CC(=O)N[C@H]1CC[C@H](c2nnc(-c3cnc(-c4ccc5cc(C#N)cnn45)cc3NCC#N)s2)CC1 [Example 20, N-((1r,4r)-4-(5-(4-((cyanomethyl)amino)-6-(3-cyanopyrrolo[1,2-b]pyridazin-7-yl)pyridin-3-yl)-1,3,4-thiadiazol-2-yl)cyclohexyl)acetamide]",–,"EC50 [2, 3]: 6 nM"
"CC(=O)N[C@H]1CC[C@H](c2nnc(-c3cnc(-c4ccc5cc(C#N)cnn45)cc3NC3COC3)s2)CC1 [Example 21, N-((1r,4r)-4-(5-(6-(3-cyanopyrrolo[1,2-b]pyridazin-7-yl)-4-(oxetan-3-ylamino)pyridin-3-yl)-1,3,4-thiadiazol-2-yl)cyclohexyl)acetamide]",–,"EC50 [2, 3]: 10 nM"
"COC(=O)NC[C@H]1C[C@H](Nc2cc(-c3ccc4cc(C#N)cnn34)ncc2-c2nnc([C@H]3CC[C@H](NC(C)=O)CC3)s2)C1 [Example 23, methyl (((1R,3r)-3-((5-(5-((1r,4R)-4-acetamidocyclohexyl)-1,3,4-thiadiazol-2-yl)-2-(3-cyanopyrrolo[1,2-b]pyridazin-7-yl)pyridin-4-yl)amino)cyclobutyl)methyl)carbamate]",–,"EC50 [2, 3]: 6 nM"
"CC(=O)N[C@@H]1CCN(c2nnc(-c3cnc(-c4ccc5cc(C#N)cnn45)cc3NC(C)C)s2)C[C@@H]1O [Example 63, N-((3S,4R)-1-(5-(6-(3-cyanopyrrolo[1,2-b]pyridazin-7-yl)-4-(isopropylamino)pyridin-3-yl)-1,3,4-thiadiazol-2-yl)-3-hydroxypiperidin-4-yl)acetamide]",–,"EC50 ([2]; Homo sapiens, Monocyte, human monocytes, second part of Table 2 (compounds 33-343), unit inferred, read-out: EC50MONO TNF HTRF): 13.8 nM"
"CC(C)Nc1cc(-c2ccc3cc(C#N)cnn23)ncc1-c1nnc(C23CCC(O)(CC2)CC3)s1 [Example 89, 7-(5-(5-(4-hydroxybicyclo[2.2.2]octan-l-yl)-1,3,4-thiadiazol-2-yl)-4-(isopropylamino)pyridin-2-yl)pyrrolo[1,2-b]pyridazine-3-carbonitrile]",11.3 nM,–
"CC(C)Nc1cc(-c2ccc3cc(C#N)cnn23)ncc1-c1nnc(N2CC3CC(C2)N3C(=O)C2CCN(C)CC2)s1 [Example 117, 7-(4-(isopropylamino)-5-(5-(6-(1-methylpiperidine-4-carbonyl)-3,6-diazabicyclo[3.1.1]heptan-3-yl)-1,3,4-thiadiazol-2-yl)pyridin-2-yl)pyrrolo[1,2-b]pyridazine-3-carbonitrile]",–,"EC50 ([2]; Homo sapiens, Monocyte, read-out: EC50MONO TNF HTRF): 11.1 nM"
"C[C@H](C#N)Nc1cc(-c2ccc3cc(C#N)cnn23)ncc1-c1nnc(N2C[C@H]3CC[C@@H](C2)[C@@H]3NC(=O)C2CC2)s1 [Example 148, N-((1R,5S,8S)-3-(5-(4-(((R)-1-cyanoethyl)amino)-6-(3-cyanopyrrolo[1,2-b]pyridazin-7-yl)pyridin-3-yl)-1,3,4-thiadiazol-2-yl)-3-azabicyclo[3.2.1]octan-8-yl)cyclopropanecarboxamide]",1.4 nM,–
"CC(C)Nc1cc(-c2ccc3cc(C#N)cnn23)ncc1-c1nnc(N2CC[C@@H](O)C(F)(F)C2)s1 [Example 162, (R)-7-(5-(5-(3,3-difluoro-4-hydroxypiperidin-l-yl)-1,3,4-thiadiazol-2-yl)-4-(isopropylamino)pyridin-2-yl)pyrrolo[1,2-b]pyridazine-3-carbonitrile]",26.5 nM,–
"C[C@H](C#N)Nc1cc(-c2ccc3cc(C#N)cnn23)ncc1-c1nnc(N2CC3CC(C2)O3)s1 [Example 178, 7-(5-(5-(6-oxa-3-azabicyclo[3.1.1]heptan-3-yl)-l,3,4-thiadiazol-2-yl)-4-(((R)-1-cyanoethyl)amino)pyridin-2-yl)pyrrolo[1,2-b]pyridazine-3-carbonitrile]",4.9 nM,–
"CC(=O)N[C@@H]1CCN(c2nnc(-c3cnc(-c4ccc5cc(C#N)cnn45)cc3NC3COC3)s2)CC1(F)F [Example 183, (R)-N-(1-(5-(6-(3-cyanopyrrolo[l,2-b]pyridazin-7-yl)-4-(oxetan-3-ylamino)pyridin-3-yl)-1,3,4-thiadiazol-2-yl)-3,3-difluoropiperidin-4-yl)acetamide]",8.8 nM,–
"CC1(O)CCN(c2nnc(-c3cnc(-c4ccc5cc(C#N)cnn45)cc3NC3COC3)s2)CC1 [Example 187, 7-(5-(5-(4-hydroxy-4-methylpiperidin-1-yl)-1,3,4-thiadiazol-2-yl)-4-(oxetan-3-ylamino)pyridin-2-yl)pyirolo[1,2-b]pyridazine-3-carbonitrile]",10.8 nM,–
"CC1(O)CCN(c2nnc(-c3cnc(-c4ccc5cc(C#N)cnn45)cc3NC3CCOCC3)s2)CC1 [Example 188, 7-(5-(5-(4-hydroxy-4-methylpiperidin-l-yl)-1,3,4-thiadiazol-2-yl)-4-((tetrahydro-2H-pyran-4-yl)amino)pyridin-2-yl)pyrrolo[1,2-b]pyridazine-3-carbonitrile]",7.6 nM,–
"CC(C)Nc1cc(-c2ccc3cc(C#N)cnn23)ncc1-c1nnc(N2CC[C@@](C)(O)[C@H](F)C2)s1 [Example 191, 7-(5-(5-((3R,$R)-3-fluoro-4-hydroxy-4-methylpiperidin-1-yl)-1,3,4-thiadiazol-2-yl)-4-(isopropylamino)pyridin-2-yl)pyrrolo[1,2-b]pyridazine-3-carbonitrile]",22.9 nM,–
"C[C@]1(O)CCN(c2nnc(-c3cnc(-c4ccc5cc(C#N)cnn45)cc3NC3CCOCC3)s2)C[C@@H]1F [Example 204, 7-(5-(5-((3S,4S)-3-fluoro-4-hydroxy-4-methylpiperidin-l-yl)-1,3,4-thiadiazol-2-yl)-4-((tetrahydro-2H-pyran-4-yl)amino)pyridin-2-yl)pyrrolo[1,2-b]pyridazine-3-carbonitrile]",3.5 nM,–
"CC(C)Nc1cc(-c2ccc3cc(C#N)cnn23)ncc1-c1nnc(CCN)s1 [Example 212, 7-(5-(5-(2-aminoethyl)-l,3,4-thiadiazol-2-yl)-4-(isopropylamino)pyridin-2-yl)pyrrolo[1,2-b]pyridazine-3-carbonitrile]",305 nM,–
"CC(C)Nc1cc(-c2ccc3cc(C#N)cnn23)ncc1-c1nnc(C(=O)N2CC[C@H](CO)C2)s1 [Example 221, (S)-7-(5-(5-(3-(hydroxymethyl)pyrrolidine-l-carbonyl)-1,3,4-thiadiazol-2-yl)-4-(isopropylamino)pyridin-2-yl)pyrrolo[1,2-b]pyridazine-3-carbonitrile]",2320 nM,–

# Source: US11702414B2, “Thiadiazole IRAK4 inhibitors” (Gilead Sciences, Inc., priority 2018, dated 2023)
